# Test system: NLRP3 inflammasome-induced IL-1β release from murine peritoneal macrophages (pMΦ)
# Assay: IL-1β release from primary resident peritoneal macrophages (ELISA)
# Type: cell-based, mice
# Details: LPS + 3% DSS, z-YVAD-fmk 10 μM, K+ 130 mM, bafilomycin A1 10 nM, NAC 20 mM
# Method: Primary resident peritoneal macrophages (pMΦ) of WT or Nlrp3−/− mice were generated as described elsewhere (Bauer et al. 2010). Briefly, mice were sacrificed under isoflurane anesthesia by cervical dislocation. Peritoneal lavage was then performed by exposing the parietal peritoneum and injecting intraperitoneally with a transpipette 10 ml of 2% FBS in PBS. The peritoneal lavage fluid was centrifuged and re-suspended at the desired concentration. The adherent pMΦ (F 4/80 positive cells) subset consists about 20% of the peritoneal lavage as observed by flow cytometer analysis. Cells were then plated into culture dishes overnight. Cells were washed, and adherent cells were used for cytokine assays. Where indicated, experiments were performed after four weeks of co-housing WT and NLRP3-deficient mice to neutralize the microbiota effect.
# pMΦ were seeded into 96-well plates at a density of 2×10^5 cells per well. After LPS priming for 1 h, cells were stimulated with different activators for 24 h. Cell culture supernatant was used for ELISA (Biolegend, San Diego Calif., USA), which was performed according to the manufacturer's protocol.
# In order to examine the effect of the apoptotic cell composition on inflammasome-induced IL-1β release, isolated macrophages were exposed to lipopolysaccharide (LPS) and DSS with or without earlier interaction with apoptotic cells for two hours.
# Given the need for TLR triggering through NF-κB signaling, and the fact that apoptotic cells can inhibit NF-κB, and therefore inhibit […] secretion in the absence of inflammasome inhibition, a set of experiments was initiated to elucidate whether IL-1β secretion is inhibited both at NF-κB and NLRP3 levels by apoptotic cells. Resident peritoneal macrophages (pMΦ) were either incubated with apoptotic cells, washed, and primed with LPS following stimulation with various inflammasome inducers, or were first primed with LPS, allowing accumulation of de novo […] transcription and then treated with apoptotic cells and inducers.
row,Molecule,DSS-mediated IL-1β release
1,z-YVAD-fmk,almost complete inhibition
2,[Cl-].[K+] [KCl],inhibited
3,"CO/C1=C\C(C)=C\[C@@H](C)[C@@H](O)[C@@H](C)C/C(C)=C/C=C/[C@H](OC)[C@@H]([C@@H](C)[C@@H](O)[C@H](C)[C@@]2(O)C[C@@H](O)[C@H](C)[C@@H](C(C)C)O2)OC1=O [bafilomycin, bafilomycin A1]",inhibited
4,CC(=O)N[C@@H](CS)C(=O)O [N-acetyl-L-cysteine],significantly inhibited
